Reference: publication PMC11785791, “Cryo-EM structure of the calcium-sensing receptor complexed with the kokumi substance γ-glutamyl-valyl-glycine” (Scientific Reports, 2025)
Substitutions are numbered along the chain they refer to. *1 amine or outer side, *2 acyl side, *3 side chain or, on linkers, in order; H or OH if unused. Where a SMILES comes first, the peptide text is derived from it. γGlu = O=C(O)[CH](CCC(=O)[*:2])N[*:1]

Key:
human CaSR R66A mutant = target: T1, human CaSR R66A mutant (Homo sapiens, UniProt P41180, R66A); experiment: Calcium mobilization assay, CaSR R66A mutant; assay type: cell-based; conditions: for Response in calcium mobilization assay: in words; for EC50: mean ± s.e.m., n = 3
T1 construct: (N); expressed in transfected cells; host or cells: PEAKrapid cells (ATCC), pcDNA 3.1, transient transfection
T1 sequence (P41180 20-1078 R66A): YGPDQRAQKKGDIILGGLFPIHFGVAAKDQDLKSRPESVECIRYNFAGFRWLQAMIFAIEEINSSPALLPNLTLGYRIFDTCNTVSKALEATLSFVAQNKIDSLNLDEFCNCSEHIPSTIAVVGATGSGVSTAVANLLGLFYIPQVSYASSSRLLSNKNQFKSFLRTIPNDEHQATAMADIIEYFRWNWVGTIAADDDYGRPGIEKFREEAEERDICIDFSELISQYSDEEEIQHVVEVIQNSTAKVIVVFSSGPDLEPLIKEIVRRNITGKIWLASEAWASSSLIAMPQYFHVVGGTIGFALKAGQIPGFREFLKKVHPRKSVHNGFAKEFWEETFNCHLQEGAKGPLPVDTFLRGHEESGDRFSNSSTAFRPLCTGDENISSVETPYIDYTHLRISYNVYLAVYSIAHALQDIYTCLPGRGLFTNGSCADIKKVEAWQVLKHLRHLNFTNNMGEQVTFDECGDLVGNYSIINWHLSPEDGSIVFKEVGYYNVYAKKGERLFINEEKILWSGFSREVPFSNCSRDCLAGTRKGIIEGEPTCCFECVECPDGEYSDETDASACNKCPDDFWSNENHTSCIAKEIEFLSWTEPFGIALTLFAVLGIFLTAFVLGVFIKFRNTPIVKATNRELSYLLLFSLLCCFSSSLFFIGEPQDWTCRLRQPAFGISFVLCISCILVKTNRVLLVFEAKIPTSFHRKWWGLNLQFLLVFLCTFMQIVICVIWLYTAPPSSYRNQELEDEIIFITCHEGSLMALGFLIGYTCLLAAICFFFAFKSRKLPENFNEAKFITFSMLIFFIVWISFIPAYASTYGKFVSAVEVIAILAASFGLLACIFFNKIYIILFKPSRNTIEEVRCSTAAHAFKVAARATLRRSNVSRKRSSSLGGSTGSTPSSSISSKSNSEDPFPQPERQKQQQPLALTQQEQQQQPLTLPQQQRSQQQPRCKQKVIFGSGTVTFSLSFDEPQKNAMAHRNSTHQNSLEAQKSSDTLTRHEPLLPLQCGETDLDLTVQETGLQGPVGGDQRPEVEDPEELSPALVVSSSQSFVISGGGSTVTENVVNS
Procedure: (§1) The CaSR receptor responsiveness was assessed by using PEAK^rapid cells (ATCC, Manassas, VA, USA) transiently transfected with the receptor DNA by the method reported by Kitajima et al.[6]. Briefly, human CaSR or its mutant cDNA with a signal sequence (MAFYSCCWVLLALTWHTSA) followed by FLAG-tag (DYKDDDDK) were inserted into pcDNA 3.1 expression vectors in Opti-MEM I medium (Thermo Fisher Scientific), mixed with FuGENE 6 (Roche), and poured onto PEAK^rapid cells grown at a submaximal concentration. After culturing for 24 h in 96-well plates, the cells were incubated with 5 µM Calcium-5 solution (Calcium-5 assay kit, Molecular Devices) for 45–60 min, and measurements were performed using a plate reader (FDSS/µCELL, Hamamatsu Photonics, Shizuoka, Japan) and its associated software. The activation of CaSR expressed in cells increases the intracellular Ca^2+ concentration, which is measured using a Ca^2+-sensitive dye. The binding of Ca^2+ to the Ca^2+-sensitive dye increases dye fluorescence, with excitation at 485 nm and emission at 525 nm. Test compounds were dissolved and administered in the assay buffer (146 mM NaCl, 1 mM MgSO4, 20 mM HEPES, 1 mM CaCl2, 2.5 mM probenecid, and 1.39 mM glucose, pH 7.4). Transiently transfected cells were challenged with compounds and compared with the vehicle alone and/or mock-transfected cells. The concentration dependence of the fluorescence intensity (influx of Ca^2+) was analyzed using the plate reader at 1 s intervals for 180 s. For the dose–response curve calculations, peak fluorescence responses after the addition of compounds were corrected for, normalized to the background fluorescence (ΔF/F = –F − F0)/F0), and baseline noise was subtracted. Dose–response curves were calculated by non-linear regression using GraphPad PRISM 8.0.

human CaSR R66E mutant = target: T2, human CaSR R66E mutant (Homo sapiens, UniProt P41180, R66E); experiment: Calcium mobilization assay, CaSR R66E mutant; assay type: cell-based; conditions: for Response in calcium mobilization assay: in words
T2 construct: (N); expressed in transfected cells; host or cells: PEAKrapid cells (ATCC), pcDNA 3.1, transient transfection
T2 sequence (P41180 20-1078 R66E): T1 sequence (P41180 20-1078 R66A) with A47E
Procedure: as §1

Row | Structure (SMILES) | Response in calcium mobilization assay (human CaSR R66A mutant; R66A mutant) | Response in calcium mobilization assay (human CaSR R66E mutant) | EC50 (human CaSR R66A mutant; R66A mutant, ND not detected) | Emax (human CaSR R66A mutant; read-out: Emax (% of wild-type values)) | Emax (% of wild-type values) (human CaSR R66A mutant; R66A mutant) | EC50 (human CaSR R66A mutant; R66A mutant) | Emax (% of wild-type values) (human CaSR R66E mutant) | EC50 (human CaSR R66E mutant; mean ± s.e.m., n = 3)
1 | N[C@@H](Cc1ccc(O)cc1)C(=O)O [L-Tyr, L-tyrosine] | no response | no response |  |  |  |  |  | 
2 | CC(C)[C@H](NC(=O)CC[C@H](N)C(=O)O)C(=O)O [γ-EV, γ-glutamyl-valine] | no response | no response |  |  |  |  |  | 
3 | CC(C)C(NC(=O)CCC(N)C(=O)O)C(=O)NCC(=O)O (stereo not drawn) [γ-EVG, γ-glutamyl-valyl-glycine] (γGlu-Val-Gly-OH; configuration not given here) | reduced its function compared to the wild-type | completely abolished the activity | 0.0189 ± 0.0005 mM | 53.6% |  |  |  | 
4 | [Ca+2].[Cl-].[Cl-] [CaCl2] |  |  |  |  | 107.2 % of WT | 3.87 ± 0.5 mM | 105.0 % of WT | 3.47 ± 0.4 mM
